Results: US11852971B2, “Compound, photosensitive resin composition including the same, photosensitive resin layer, color filter and display device” (SAMSUNG SDI CO., LTD., priority 2019, dated 2023)

How the values were obtained:
[1] = Measurement of the shortest wavelength of full width at half maximum (FWHM) with respect to maximum absorption wavelength (absorption spectrum); type: physicochemical; conditions: 0.005 wt % in PGMEA; UV-1800
Text: The shortest wavelength of the full width at half maximum (FWHM) with respect to the maximum absorption wavelengths denotes a wavelength having the smallest value (a) among the energy widths (Δλ) of the maximum absorption wavelength (b) in the absorption spectrum of a particular phthalocyanine compound. (Refer to the FIGURE)
Evaluation 1: Measurement of the Shortest Wavelength of Full Width at Half Maximum (FWHM) with respect to Maximum Absorption Wavelength
The compounds according to Synthesis Example 1 to Synthesis Example 21 and Comparative Synthesis Example 1 to Comparative Synthesis Example 6 were prepared at a concentration of 0.005 wt % using a diluting solvent (PGMEA). Absorption spectra were obtained for each of the phthalocyanine compounds according to Synthesis Example 1 to […] and Comparative Synthesis Example 1 to Comparative Synthesis Example 6, and the results are shown in Table 1 (UV-1800, SHTMADZU).

[2] = Solubility measurement in dilution solvent (PGMEA); type: physicochemical; conditions: PGMEA added to 0.5 g compound, stirred 100 rpm, one hour, 25° C.
Experimental: Evaluation 2: Solubility Measurement Solubility of the compounds according to Synthesis Examples 11 to 21 and Comparative Synthesis Examples 1 to 6 were measured by adding a dilution solvent (PGMEA) to 0.5 g of each compound and respectively stirring the mixtures (MIXROTAR VMR-5, Iuchi Seiei Dou Co.) at 100 rpm for one hour at 25° C., and the results are shown in Table 2. Solubility Evaluation Criteria Greater than or equal to 10 wt % of a compound (a solute) based on a total amount of a diluting solvent was dissolved: ∘ Less than 10 wt % of a compound (a solute) based on a total amount of a diluting solvent was dissolved: X

CC(C)(C)c1ccccc1Oc1c(Cl)c(Cl)c2c(c1Cl)/C1=N/c3c4c(Cl)c(Oc5ccccc5C(C)(C)C)c(Cl)c(Cl)c4c4[n]3[Zn][n]3/c(c5cc(Cl)ccc5/c3=N/C2=N1)=N\C1=NC(=N\4)/c2c(Cl)c(Cl)c(Cl)c(Cl)c21 [Comparative Synthesis Example 6, reference compound]
The shortest wavelength (nm) of full width at half maximum (FWHM) with respect to maximum absorption wavelength [1]: 623 nm
Solubility [2]: X (Less than 10 wt % of a compound (a solute) based on a total amount of a diluting solvent was dissolved)

CC(C)COc1c(Cl)c(Cl)c2c(c1Cl)/C1=N/c3c4c(Cl)c(OCC(C)C)c(Cl)c(Cl)c4c4[n]3[Zn][n]3/c(c5ccccc5/c3=N/C2=N1)=N\C1=NC(=N\4)/c2ccccc21 [Synthesis Example 20]
The shortest wavelength (nm) of full width at half maximum (FWHM) with respect to maximum absorption wavelength [1]: 611 nm
Solubility [2]: ○

CC(C)COc1c(Cl)c(Cl)c2c(c1Cl)/C1=N/c3c4c(Cl)c(Cl)c(Cl)c(Cl)c4c4[n]3[Zn][n]3/c(c5ccccc5/c3=N/C2=N1)=N\C1=NC(=N\4)/c2c(Cl)c(Cl)c(Cl)c(Cl)c21 [Synthesis Example 19]
The shortest wavelength (nm) of full width at half maximum (FWHM) with respect to maximum absorption wavelength [1]: 618 nm
Solubility [2]: ○

Cc1cccc(C)c1Oc1c(Cl)c(Cl)c2c(c1Cl)/C1=N/c3c4c(Cl)c(Cl)c(Cl)c(Cl)c4c4[n]3[Zn][n]3/c(c5ccccc5/c3=N/C2=N1)=N\C1=NC(=N\4)/c2c(Cl)c(Cl)c(Cl)c(Cl)c21 [Synthesis Example 7]
The shortest wavelength (nm) of full width at half maximum (FWHM) with respect to maximum absorption wavelength [1]: 618 nm
Solubility [2]: ○

Cc1cccc(C)c1Oc1c(Cl)c(Cl)c2c(c1Cl)/C1=N/c3c4c(Cl)c(Oc5c(C)cccc5C)c(Cl)c(Cl)c4c4[n]3[Zn][n]3/c(c5ccccc5/c3=N/C2=N1)=N\C1=NC(=N\4)/c2c(Cl)c(Cl)c(Cl)c(Cl)c21 [Synthesis Example 6]
The shortest wavelength (nm) of full width at half maximum (FWHM) with respect to maximum absorption wavelength [1]: 618 nm
Solubility [2]: ○
